This note sets out measurements from patent US6927221B2, “Tricyclic fused heterocyclic compound, process for preparing it and medicament comprising it” (Eisai Co., Ltd., priority 1999, dated 2005).

Structures can show the parent of a compound that is named as a salt. Where two headings read alike, the source gives them in different places.

One assay has as its target T1, human CRFR1 (Homo sapiens, UniProt P34998).
T1 construct: The full length gene of CRFR^1 was obtained by a PCT method using human brain (QuickClone™ Clontech) as cDNA library; expressed in transfected cells; host or cells: Hek 283 cell (so in the source)
T1 sequence (P34998 24-415): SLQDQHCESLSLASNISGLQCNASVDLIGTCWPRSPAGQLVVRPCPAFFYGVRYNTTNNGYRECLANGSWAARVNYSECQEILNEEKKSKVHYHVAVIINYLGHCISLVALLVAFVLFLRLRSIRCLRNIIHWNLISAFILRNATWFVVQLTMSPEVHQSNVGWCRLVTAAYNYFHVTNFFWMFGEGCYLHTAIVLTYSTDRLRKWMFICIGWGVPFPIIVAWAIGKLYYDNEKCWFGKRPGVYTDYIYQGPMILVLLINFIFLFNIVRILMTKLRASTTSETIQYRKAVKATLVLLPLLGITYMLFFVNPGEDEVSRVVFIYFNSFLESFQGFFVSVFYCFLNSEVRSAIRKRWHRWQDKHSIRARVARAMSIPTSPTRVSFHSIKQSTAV
Put plainly: CRFR binding experiment (125I-sauvagine, SPA). The conditions noted are these: membrane fraction of cell expressing human CRFR1, 40 pM 125I-sauvagine, room temperature, two hours; read-out: CRF1 receptor binding ability IC50. Here is the method: • (1) Preparation of CRFR expressing cell: As an experiment material for the CRFR binding experiment, a membrane fraction of a cell which expressed highly human CRFR1. CRFR expressing cell was prepared as follows. The full length gene of CRFR^1 was obtained by a PCT method using human brain (QuickClone™ Clontech) as cDNA library. The resulting DNA fragment was inserted into a cloning vector to confirm the base sequence. A cDNA having the correct base sequence was ligated to an expression vector (pcDNA3.1™, Invitrogen). A gene was inserted into […] cell and grown in a cell culturing solution containing G418 (1 mg/ml) to obtain a resistance cell, into which a CRFR^1 expression vector was cloned by a limitation diluting method. A clone having the high binding ability of membrane and sauvagine per unit protein was finally selected from cloned cells by a binding experiment shown by the method shown below, which was used for an experiment. • (2) Preparation of a membrane fraction: G418 resistant cells into which a gene for CRFR^1 was introduced were collected, and cell rupture was performed by an ultrasound generator with a sonicate buffer (D-PBS-10 mM MgCl2, 2 mM EGTA). A suspension after ultrasound rupture was centrifuged (46,000×g, 10 minutes), the sediment thereof was further resuspended with a sonicate buffer, and the same procedures were related. Finally, the sediment was suspended in a binding buffer (D-PBS-10 mM MgCl2, 2 mM EGTA, 1.5% BSA, 0.15 mM bacitracin, 1× protease inhibitor cocktail (COMPLETE™, Boehringer), to adjust the protein concentration at 1.6 mg/ml, which was used as a membrane fraction. • (3) Binding experiment: Binding experiment with sauvagine was performed using a 96-well plate and SP™ (Amersham pharmacia) An experiment was according to the specification of SPA beads. […] of a membrane fraction protein, 0.5 mg of beads and 40 pM ^125I-sauvaging (Amersham pharmacia) were allowed to stand at room temperature for two hours in the presence a test compound, centrifuged (1,000×g, 5 minutes), and then the radioactivity of each well was measured with TopCount™ (Packard). • (4) Calculation of the binding ability: The radioactivity as the non-specific binding when 1,000-fold excessive amount of non-radioactive sauvagine was added was substacted from each value, the radioactivity where no test material is added is regarded as 100% (control), and each value is shown by % (% of control). The concentration showing 50% in % (% of control) was obtained from a graph where the concentration test material is plotted on an abscissa axis and % (% of control) is plotted on a coordinate axis and IC50 value was calculated (Table 1)

For another assay, the system named is AtT-20 cell. Put plainly: Experiment for measuring adenylate cyclase activity using AtT-20 cell (CRF-induced cAMP). Type of assay: cell-based, mouse. The following applies: 1 mM IBMX, intracellular cAMP by ELISA, read-out: adenylate cyclase ability IC50. An excerpt:
Experiment for Measuring Adenyrate Cyclase the Activity Using AtT-20 Cell
• (1) Test procedures: AtT-20 cell is a cell strain derived from mouse pytuitari gland tumor, it is known that the intracellular adenyrate cyclase system is activated in response to corticotrophin release hormone (CRF), to produce cyclic AMP (cAMP), releasing adrenocortical hormone (ACTH) (Biochem. Piophys. Res. Com. 106. 1364-1371, 1982). In this experiment, the cell 1×10^5) suspended in D-MEM medium (0.1% FPS), seeded on a 96-well plate, a phosphodiesterase inhibitor (IBMX, Calbiochem) was added to the final concentration of 1 mM, which was cultured at 37° C. for 30 minutes. A diluted test compound solution and CRF (30 nM) were added, which was further cultured at 37° C. for 10 minutes, cells were collected by centrifugation (500×g, 5 minutes), cells were lysed with a lysis buffer (Amersham Pharmacia), and an amount of intracellular cAMP produced was quantitated using the ELISA method. For ELISA, cAMP EIA system (BIOTRAK™ Amersham Pharmacia) was used. • (2) Calculation of adenyrate cyclase activity inhibitory ability: Treatment of the resulting data was carried out as follows. An amount of cAMP produced by a cell to which 30 nM CRF was added is regarded as 100% (control) and a value of each sample is expressed as % (% of control). The concentration showing 50% in % (% of control) was obtained from a graph where the concentration of a test material is plotted on an abscissa axis and % (% of control) is plotted on a coordinate and IC50 value was calculated (Table 2).

As for `CCC(CC)N1CCc2c(C)nc3c(-c4c(C)cc(C)cc4C)c(C)nn3c21` [Example 1, 8-(1-Ethylpropyl)-3-mesityl-2,5-dimethyl-7,8-dihydro-6H-pyrazolo[1,5-a]pyrrolo[3,2-e]pyrimidine hydrochloride], the IC50 amounted to 100 nM on human CRFR1 and 900 nM in the assay with AtT-20 cell (Mus musculus, AtT20, 30 nM CRF).
Turning to `CCCCN1CCc2c(C)nc3c(-c4c(C)cc(C)cc4C)c(C)nn3c21` [Example 2, 8-Butyl-3-mesityl-2,5-dimethyl-7,8-dihydro-pyrazolo[1,5-a]pyrrolo[3,2-e]pyrimidine hydrochloride], the IC50 on human CRFR1 was found to be 500 nM.
`CCCC(CCC)N1CCc2c(C)nc3c(-c4cnc(N(C)C)cc4C)c(C)nn3c21` [Example 3, N-5-[2,5-Dimethyl-8-(1-propylbutyl)-7,8-dihydro-6H-pyrazolo[1,5-a]pyrrolo[3,2-e]pyrimidin-3-yl]-4-methyl-2-pyridyl-N,N-dimethylamine hydrochloride]: the IC50 on human CRFR1 amounted to 600 nM.
On to `CCCC(CCC)N1CCc2c(C)nc3c(-c4c(C)cc(C)cc4C)c(C)nn3c21` [Example 6, 3-Mesityl-2,5-dimethyl-8-(1-propylbutyl)-7,8-dihydro-6H-pyrazolo[1,5-a]pyrrolo[3,2]-pyrimidine hydrochloride], for which the IC50 on human CRFR1 came to 1000 nM.
In the case of `CCC(CC)N1CCCc2c(C)nc3c(-c4c(C)cc(C)cc4C)c(C)nn3c21` [Example 12, 9-(1-Ethylpropyl)-3-mesityl-2,5-dimethyl-6,7,8,9-tetrahydropyrazolo[1,5-a]pyrido[3,2-e]pyrimidine], on human CRFR1, the IC50 amounted to 1500 nM.
For `CCC(CC)N1c2c(c(C)nc3c(-c4c(C)cc(C)cc4C)c(C)nn23)CC1C` (stereo not shown) [Example 13, 8-(1-Ethylpropyl)-mesityl-2,5,7-trimethyl-7,8-dihydro-6H-pyrazolo[1,5-a]pyrrolo[3,2-e]pyrimidine], the IC50 at human CRFR1 is 2500 nM; with AtT-20 cell (30 nM CRF), 1500 nM.
In the case of `CCc1nn2c3c(c(C)nc2c1-c1c(C)cc(C)cc1C)CCN3C(CC)CC` [Example 23, 2-Ethyl-8-(1-ethylpropyl)-3-mesityl-5-methyl-7,8-dihydro-6H-pyrazolo[1,5-a]pyrrolo[3,2-e]pyrimidine], at human CRFR1, the IC50 came to 1500 nM.
In the case of `CCC(CC)N1CCc2c(C)nc3c(-c4ccc(Cl)cc4Cl)c(C)nn3c21` [Example 33, 3-(2,4-Dichlorophenyl)-8-(1 ethylpropyl)-2,5-dimethyl-7,8-dihydro-6H-pyrazolo[1,5-a]pyrrolo[3,2-e]pyrimidine hydrochloride], the IC50 on human CRFR1 worked out at 1000 nM.
In the case of `Cc1cc(C)c(-c2c(C)nn3c4c(c(C)nc23)CCN4CC2CC2)c(C)c1` [Example 38, 8-(Cyclopropylmethyl)-3-mesityl-2,5-dimethyl-7,8-dihydro-6H-pyrazolo[1,5-a]pyrrolo[3,2-e]pyrimidine hydrochloride], the IC50 at human CRFR1 is 3000 nM.
In the case of `COCCN1c2c(c(C)nc3c(-c4c(C)cc(C)cc4C)c(C)nn23)CC1C` (stereo not shown) [Example 44, 3-Mesityl-8-(2-methoxyethyl)-2,5,7-trimethyl-7,5-dihydro-6H-pyrazolo[1,5-a]pyrrolo[3,2-e]pyrimidine hydrochloride], on human CRFR1, the IC50 was 400 nM.
Take `Cc1cc(C)c(-c2c(C)nn3c4c(c(C)nc23)CCN4C2CCCCCC2)c(C)c1` [Example 45, 8-Cycloheptyl-3-mesityl-2,5-dimethyl-7,8-dihydro)-6H-pyrazolo[1,5-a]pyrrolo[3,2-e]pyrimidine hydrochloride]: on human CRFR1, the IC50 stood at 1500 nM.
With `CCC(CC)n1ccc2c(C)nc3c(-c4c(C)cc(C)cc4C)c(C)nn3c21` [Example 67, 8-(1-Ethylpropyl)-3-mesityl-2,5-dimethyl-8H-pyrazolo[1,5-a]pyrrolo[3,2-e]pyrimidine], the IC50 on human CRFR1 was 200 nM; in the assay on AtT-20 cell (Mus musculus, AtT20, 30 nM CRF) it was 2000 nM.
On to `CCCC(=O)N1CCc2c(C)nc3c(-c4c(C)cc(C)cc4C)c(C)nn3c21` [Example 74, 1-(3-Mesityl-2,5-dimethyl-7,8-dihydro-6H-pyrazolo[1,5-a]pyrrolo[3,2-e]pyrimidin-8-yl)-1-butanone], for which, on human CRFR1, the IC50 worked out at 1400 nM.
